Reference: patent US20250282827A1, “LIPIDATED POLYMYXIN ANALOGUES” (priority 2021, published 2025)
Values after ≈ are worked out from the molar mass of the structure shown. Where two headings read alike, the source gives them in different places. Positions of bridges follow the written chain, without caps; N, C: chain ends. Non-standard residues stand in square brackets, D forms with d. Residues, ends and D or L forms follow the SMILES beside them. *: point of attachment. CH2CH2OBz(4-tBu) = CC(C)(C)c1ccc(C(=O)OCC*)cc1; Ethyl(2-decanoyloxy) = CCCCCCCCCC(=O)OCC*; Ethyl(2-butanoyloxy) = CCCC(=O)OCC*; Ethyl(2-propionyloxy) = CCC(=O)OCC*; Ethyl(2-OPiv) = CC(C)(C)C(=O)OCC*; Ethyl(2-OBz) = O=C(OCC*)c1ccccc1; Dab = NCC[C@H](N)C(=O)O

Key:
[1] = system: E. coli ATCC 25922; assay type: cell-based, Escherichia coli
From the text: (§1) All 81 compounds prepared in Examples 2 and 3 underwent screening against a panel of Gram-negative bacterium to assess their ability to inhibit bacterial growth. […] The median value is presented.

[2] = system: A. baumannii ATCC 19606; assay type: cell-based, Acinetobacter baumannii
From the text: as §1

[3] = system: P. aeruginosa ATCC 27853; assay type: cell-based, Pseudomonas aeruginosa
From the text: as §1

[4] = system: K. pneumoniae ATCC 33495; assay type: cell-based, Klebsiella pneumoniae
From the text: as §1

[5] = system: K. pneumoniae ATCC 700603; assay type: cell-based, Klebsiella pneumoniae
From the text: as §1

[6] = system: K. pneumoniae ATCC MS6671; assay type: cell-based, Klebsiella pneumoniae
From the text: as §1

[7] = system: E. coli ATCC MS8345; assay type: cell-based, Escherichia coli
From the text: as §1
Expansion of the polymyxin macrocycle by substituting […]) offered little advantage in antimicrobial activity but was generally well tolerated although for A. baumanni and P. aeruginosa this was detrimental.

[8] = colistin-resistant strain, median of triplicate

| Structure (SMILES) | MIC E. coli ATCC 25922 ([1]; ATCC 25922) | MIC A. baumannii ATCC 19606 ([2]; ATCC 19606) | MIC P. aeruginosa ATCC 27853 ([3]; ATCC 27853) | MIC K. pneumoniae ATCC 33495 ([4]; ATCC 33495) | MIC K. pneumoniae ATCC 700603 ([5]; ATCC 700603) | MIC K. pneumoniae ATCC MS6671 ([6]; ATCC MS6671) | MIC E. coli ATCC MS8345 ([7]; ATCC MS8345) | MIC E. coli ATCC 25922 ([1]; median of triplicate) | MIC A. baumannii ATCC 19606 ([2]; median of triplicate) | MIC P. aeruginosa ATCC 27853 ([3]; median of triplicate) | MIC K. pneumoniae ATCC 33495 ([4]; median of triplicate) | MIC K. pneumoniae ATCC 700603 ([5]; median of triplicate) | MIC K. pneumoniae ATCC MS6671 ([6]; median of triplicate) | MIC E. coli ATCC MS8345 [7, 8] |
| --- | --- | --- | --- | --- | --- | --- | --- | --- | --- | --- | --- | --- | --- | --- |
| CC(C)C[C@@H]1NC(=O)[C@@H](Cc2ccccc2)NC(=O)[C@H](CCN)NC(=O)[C@@H](NC(=O)[C@H](CCN)NC(=O)[C@@H](NC(=O)[C@H](CCN)NC(=O)[C@@H](N)CSCCOC(=O)C(C)(C)C)[C@@H](C)O)CCCCNC(=O)[C@H]([C@@H](C)O)NC(=O)[C@H](CCN)NC(=O)[C@H](CCN)NC1=O [Compound 26] (H-C(Ethyl(2-OPiv))[Dab]T[Dab]K[Dab][dF]L[Dab][Dab]T; lactam 5-C) | 1 µg/mL (≈ 0.756 µM) | >32 µg/mL | >32 µg/mL | 0.5 µg/mL (≈ 0.378 µM) | 16 µg/mL (≈ 12.1 µM) | >32 µg/mL | >32 µg/mL | – | – | – | – | – | – | – |
| CC(C)C[C@@H]1NC(=O)[C@@H](Cc2ccccc2)NC(=O)[C@H](CCN)NC(=O)[C@@H](NC(=O)[C@H](CCN)NC(=O)[C@@H](NC(=O)[C@H](CCN)NC(=O)[C@@H](N)CSCCOC(=O)c2ccccc2)[C@@H](C)O)CCCCNC(=O)[C@H]([C@@H](C)O)NC(=O)[C@H](CCN)NC(=O)[C@H](CCN)NC1=O [Compound 27] (H-C(Ethyl(2-OBz))[Dab]T[Dab]K[Dab][dF]L[Dab][Dab]T; lactam 5-C) | – | – | – | – | – | – | – | 1 µg/mL (≈ 0.745 µM) | >32 µg/mL | >32 µg/mL | 0.5 µg/mL (≈ 0.372 µM) | 2 to 4 µg/mL | >32 µg/mL | >32 µg/mL |
| CC(C)C[C@@H]1NC(=O)[C@@H](Cc2ccccc2)NC(=O)[C@H](CCN)NC(=O)[C@@H](NC(=O)[C@H](CCN)NC(=O)[C@@H](NC(=O)[C@H](CCN)NC(=O)[C@@H](N)CSCCOC(=O)c2ccc(C(C)(C)C)cc2)[C@@H](C)O)CCCCNC(=O)[C@H]([C@@H](C)O)NC(=O)[C@H](CCN)NC(=O)[C@H](CCN)NC1=O [Compound 28] (H-C(CH2CH2OBz(4-tBu))[Dab]T[Dab]K[Dab][dF]L[Dab][Dab]T; lactam 5-C) | 2 µg/mL (≈ 1.43 µM) | 4 µg/mL (≈ 2.86 µM) | 1 µg/mL (≈ 0.715 µM) | 0.5 µg/mL (≈ 0.357 µM) | 4 µg/mL (≈ 2.86 µM) | >32 µg/mL | 32 µg/mL (≈ 22.9 µM) | – | – | – | – | – | – | – |
| CCCC(=O)OCCSC[C@H](N)C(=O)N[C@@H](CCN)C(=O)N[C@H](C(=O)N[C@@H](CCN)C(=O)N[C@H]1CCNC(=O)[C@H]([C@@H](C)O)NC(=O)[C@H](CCN)NC(=O)[C@H](CCN)NC(=O)[C@H](CC(C)C)NC(=O)[C@@H](Cc2ccccc2)NC(=O)[C@H](CCN)NC1=O)[C@@H](C)O [Compound 30] (H-C(Ethyl(2-butanoyloxy))[Dab]T[Dab][Dab][Dab][dF]L[Dab][Dab]T; lactam 5-C) | 0.5 µg/mL (≈ 0.39 µM) | 2 µg/mL (≈ 1.56 µM) | 2 µg/mL (≈ 1.56 µM) | 0.125 µg/mL (≈ 0.0976 µM) | 0.5 µg/mL (≈ 0.39 µM) | >32 µg/mL | 32 µg/mL (≈ 25 µM) | – | – | – | – | – | – | – |
| CCCCCCCCCC(=O)OCCSC[C@H](N)C(=O)N[C@@H](CCN)C(=O)N[C@H](C(=O)N[C@@H](CCN)C(=O)N[C@H]1CCNC(=O)[C@H]([C@@H](C)O)NC(=O)[C@H](CCN)NC(=O)[C@H](CCN)NC(=O)[C@H](CC(C)C)NC(=O)[C@@H](Cc2ccccc2)NC(=O)[C@H](CCN)NC1=O)[C@@H](C)O [Compound 31] (H-C(Ethyl(2-decanoyloxy))[Dab]T[Dab][Dab][Dab][dF]L[Dab][Dab]T; lactam 5-C) | 2 µg/mL (≈ 1.47 µM) | 1 µg/mL (≈ 0.733 µM) | 1 µg/mL (≈ 0.733 µM) | 0.5 µg/mL (≈ 0.366 µM) | 4 µg/mL (≈ 2.93 µM) | >32 µg/mL | 2 to 4 µg/mL | – | – | – | – | – | – | – |
| CC(C)C[C@@H]1NC(=O)[C@@H](Cc2ccccc2)NC(=O)[C@H](CCN)NC(=O)[C@@H](NC(=O)[C@H](CCN)NC(=O)[C@@H](NC(=O)[C@H](CCN)NC(=O)[C@@H](N)CSCCOC(=O)C(C)(C)C)[C@@H](C)O)CCNC(=O)[C@H]([C@@H](C)O)NC(=O)[C@H](CCN)NC(=O)[C@H](CCN)NC1=O [Compound 32] (H-C(Ethyl(2-OPiv))[Dab]T[Dab][Dab][Dab][dF]L[Dab][Dab]T; lactam 5-C) | 0.25 µg/mL (≈ 0.193 µM) | 1 µg/mL (≈ 0.772 µM) | 1 µg/mL (≈ 0.772 µM) | 0.125 µg/mL (≈ 0.0966 µM) | 0.5 µg/mL (≈ 0.386 µM) | >32 µg/mL | 16 µg/mL (≈ 12.4 µM) | – | – | – | – | – | – | – |
| CC(C)C[C@@H]1NC(=O)[C@@H](Cc2ccccc2)NC(=O)[C@H](CCN)NC(=O)[C@@H](NC(=O)[C@H](CCN)NC(=O)[C@@H](NC(=O)[C@H](CCN)NC(=O)[C@@H](N)CSCCOC(=O)c2ccc(C(C)(C)C)cc2)[C@@H](C)O)CCNC(=O)[C@H]([C@@H](C)O)NC(=O)[C@H](CCN)NC(=O)[C@H](CCN)NC1=O [Compound 34] (H-C(CH2CH2OBz(4-tBu))[Dab]T[Dab][Dab][Dab][dF]L[Dab][Dab]T; lactam 5-C) | 1 µg/mL (≈ 0.73 µM) | 1 µg/mL (≈ 0.73 µM) | 0.5 µg/mL (≈ 0.365 µM) | 0.25 µg/mL (≈ 0.182 µM) | 1 µg/mL (≈ 0.73 µM) | >32 µg/mL | 1 µg/mL (≈ 0.73 µM) | – | – | – | – | – | – | – |
| CCCC(=O)OCCSC[C@@H]1NC(=O)[C@@H](Cc2ccccc2)NC(=O)[C@H](CCN)NC(=O)[C@@H](NC(=O)[C@H](CCN)NC(=O)[C@@H](NC(=O)[C@H](CCN)NC(=O)[C@@H](N)CSCCOC(=O)CCC)[C@@H](C)O)CCNC(=O)[C@H]([C@@H](C)O)NC(=O)[C@H](CCN)NC(=O)[C@H](CCN)NC1=O [Compound 36] (H-C(Ethyl(2-butanoyloxy))[Dab]T[Dab][Dab][Dab][dF]C(Ethyl(2-butanoyloxy))[Dab][Dab]T; lactam 5-C) | 0.25 µg/mL (≈ 0.181 µM) | 16 µg/mL (≈ 11.6 µM) | 16 µg/mL (≈ 11.6 µM) | 0.25 to 0.5 µg/mL | 0.25 to 0.5 µg/mL | >32 µg/mL | 32 µg/mL (≈ 23.1 µM) | – | – | – | – | – | – | – |
| CCCCCCCCCC(=O)OCCSC[C@@H]1NC(=O)[C@@H](Cc2ccccc2)NC(=O)[C@H](CCN)NC(=O)[C@@H](NC(=O)[C@H](CCN)NC(=O)[C@@H](NC(=O)[C@H](CCN)NC(=O)[C@@H](N)CSCCOC(=O)CCCCCCCCC)[C@@H](C)O)CCNC(=O)[C@H]([C@@H](C)O)NC(=O)[C@H](CCN)NC(=O)[C@H](CCN)NC1=O [Compound 37] (H-C(Ethyl(2-decanoyloxy))[Dab]T[Dab][Dab][Dab][dF]C(Ethyl(2-decanoyloxy))[Dab][Dab]T; lactam 5-C) | 2 to 4 µg/mL | 4 µg/mL (≈ 2.58 µM) | 4 µg/mL (≈ 2.58 µM) | 2 µg/mL (≈ 1.29 µM) | 4 µg/mL (≈ 2.58 µM) | >32 µg/mL | 4 µg/mL (≈ 2.58 µM) | – | – | – | – | – | – | – |
| C[C@@H](O)[C@@H]1NC(=O)[C@H](CCN)NC(=O)[C@H](CCN)NC(=O)[C@H](CSCCOC(=O)c2ccc(C(C)(C)C)cc2)NC(=O)[C@@H](Cc2ccccc2)NC(=O)[C@H](CCN)NC(=O)[C@@H](NC(=O)[C@H](CCN)NC(=O)[C@@H](NC(=O)[C@H](CCN)NC(=O)[C@@H](N)CSCCOC(=O)c2ccc(C(C)(C)C)cc2)[C@@H](C)O)CCNC1=O [Compound 40] (H-C(CH2CH2OBz(4-tBu))[Dab]T[Dab][Dab][Dab][dF]C(CH2CH2OBz(4-tBu))[Dab][Dab]T; lactam 5-C) | 2 to 4 µg/mL | 2 µg/mL (≈ 1.28 µM) | 2 µg/mL (≈ 1.28 µM) | 2 to 4 µg/mL | 2 µg/mL (≈ 1.28 µM) | >32 µg/mL | 4 µg/mL (≈ 2.56 µM) | – | – | – | – | – | – | – |
| C[C@@H](O)[C@@H]1NC(=O)[C@H](CCN)NC(=O)[C@H](CCN)NC(=O)[C@H](CSCCOC(=O)c2ccccc2)NC(=O)[C@@H](Cc2ccccc2)NC(=O)[C@H](CCN)NC(=O)[C@@H](NC(=O)[C@H](CCN)NC(=O)[C@@H](NC(=O)[C@H](CCN)NC(=O)[C@@H](N)CSCCOC(=O)c2ccc(C(C)(C)C)cc2)[C@@H](C)O)CCNC1=O [Compound 41] (H-C(CH2CH2OBz(4-tBu))[Dab]T[Dab][Dab][Dab][dF]C(Ethyl(2-OBz))[Dab][Dab]T; lactam 5-C) | – | – | – | – | – | – | – | 1 µg/mL (≈ 0.663 µM) | 2 µg/mL (≈ 1.33 µM) | 2 µg/mL (≈ 1.33 µM) | 2 to 4 µg/mL | 1 to 2 µg/mL | >32 µg/mL | 4 µg/mL (≈ 2.65 µM) |
| CCC(=O)OCCSC[C@H](N)C(=O)N[C@@H](CCN)C(=O)N[C@H](C(=O)N[C@@H](CCN)C(=O)N[C@H]1CCNC(=O)[C@H]([C@@H](C)O)NC(=O)[C@H](CCN)NC(=O)[C@H](CCN)NC(=O)[C@H](CSCCOC(=O)C(C)(C)C)NC(=O)[C@@H](Cc2ccccc2)NC(=O)[C@H](CCN)NC1=O)[C@@H](C)O [Compound 43] (H-C(Ethyl(2-propionyloxy))[Dab]T[Dab][Dab][Dab][dF]C(Ethyl(2-OPiv))[Dab][Dab]T; lactam 5-C) | 2 µg/mL (≈ 1.44 µM) | >32 µg/mL | >32 µg/mL | 16 µg/mL (≈ 11.6 µM) | 2 to 4 µg/mL | >32 µg/mL | >32 µg/mL | – | – | – | – | – | – | – |
